Results taken from PubChem BioAssay AID600 (The Scripps Research Institute Molecular Screening Center, 2007).
Active and inactive are the calls of the source.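 Rule for the calls: active = IC50 at or below 10 micromolar; inactive = IC50 above 10 micromolar.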

target: Steroidogenic factor 1 (Homo sapiens) (UniProt Q13285); assay: blockers of SF-1 LBD reporter transcription – cell-based, CHO-K1, Gal4-SF-1 LBD, luciferase luminescence, dose response (AID 600); details: CHO-K1 Gal4-SF-1 LBD luciferase reporter
Sequence (Q13285 whole entry, looked up, the tested form may be a part): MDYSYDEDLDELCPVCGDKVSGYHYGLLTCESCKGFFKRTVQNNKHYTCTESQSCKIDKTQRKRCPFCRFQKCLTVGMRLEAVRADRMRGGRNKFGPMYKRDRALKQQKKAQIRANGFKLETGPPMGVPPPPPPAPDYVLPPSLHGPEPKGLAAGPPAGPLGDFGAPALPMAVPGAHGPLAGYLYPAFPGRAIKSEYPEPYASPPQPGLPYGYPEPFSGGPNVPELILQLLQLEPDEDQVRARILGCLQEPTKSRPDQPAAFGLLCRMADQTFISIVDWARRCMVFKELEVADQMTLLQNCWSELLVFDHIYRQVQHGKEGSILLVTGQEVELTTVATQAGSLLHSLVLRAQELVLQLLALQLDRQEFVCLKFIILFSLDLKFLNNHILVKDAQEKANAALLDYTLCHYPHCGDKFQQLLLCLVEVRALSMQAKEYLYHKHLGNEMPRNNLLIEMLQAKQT

| Structure (SMILES) | IC50 |
| --- | --- |
| CCOc1ccccc1-n1c(SCC(=O)Nc2ccc(CC)cc2)nc2n[nH]c(C)c2c1=N | 5.99 µM |
| O=C(/C=C\Nc1ccc2c(c1)OCO2)c1ccccn1 | inactive |
| CN(C)c1ccc(N/C=C/C(=O)c2ccccc2)cc1 | > 11 µM (inactive) |
| O=S(=O)(c1ccc2c(c1)C(=NO)c1cc(S(=O)(=O)N3CCCCC3)ccc1-2)N1CCCCC1 | 1.51 µM |
| COc1cc(C2C(C#N)=C(N)Oc3cc(N(C)C)ccc32)cc2c1OCO2 (stereo not drawn) | > 3.67 µM (inactive) |
| COc1cc(/C=N/O)ccc1OCc1ccc(C(=O)O)cc1 | 1.16 µM |
| CC(=O)CC1OC(=O)C(Br)=C1NCc1ccccc1 (stereo not drawn) | > 11 µM (inactive) |
| Cc1ccc(C(=O)/C=C/Nc2ccccn2)cc1 | > 11 µM (inactive) |
| CSC1=C(C#N)C(c2ccc(Cl)cc2)C2=C(CC(C)(C)CC2=O)N1 (stereo not drawn) | inactive |
| CCN(CC)c1ccc2c(c1)OC(N)=C(C#N)C2c1cccnc1 (stereo not drawn) | > 3.67 µM (inactive) |
| CN(C)c1ccc2c(c1)OC(N)=C(C#N)C2c1cccc(F)c1 (stereo not drawn) | inactive |
| O=C(/C=C\Nc1cccc(F)c1)c1ccc2c(c1)OCO2 | 4.65 µM |
| COC(=O)C1=C(CN2CCCc3ccccc32)NC(=O)NC1c1ccc(F)cc1 (stereo not drawn) | 5.34 µM |
| CCOC(=O)C1=C(Cn2cnc3ccccc32)NC(=O)NC1c1cc(C)ccc1C (stereo not drawn) | inactive |
| COC(=O)c1ccc(N2C(=O)CC(N3CCC(n4c(=O)[nH]c5ccccc54)CC3)C2=O)cc1 (stereo not drawn) | > 99 µM (inactive) |
| O=C(/C=C\Nc1ccccn1)c1ccc(Cl)cc1 | 6.09 µM |
| COc1cc(C2C(C#N)=C(N)Oc3cc(N)ccc32)cc(OC)c1OC (stereo not drawn) | 7.92 µM |
| N#CC1=C(N)C(C#N)(C#N)[C@H](c2ccncc2)[C@H]2CN(C(=O)OCc3ccccc3)CC=C12 | inactive |
